From PubChem BioAssay (NCI) come the findings set out here.

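Assay format: 96-well plates, 48-hour exposure. At the GI50, growth is halved. TGI marks complete inhibition of growth.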

Test systems include HCT-116 colon; RPMI-8226 leukemia; HCT-15 colon; RXF 393 renal; HT29 colon; OVCAR-3 ovarian; OVCAR-5 ovarian; A498 renal; NCI-H460 lung; K-562 leukemia.
What all share (assay): NCI-60 cell line screen, 48 h

On to `C=C1C(=O)C23C(O)C1CC[C@H]2C12CCCC(C)(COC(C)=O)[C@H]1[C@H](O)[C@]3(O)OC2` (stereo not given in full), for which the TGI with HCT-116 colon was found to be 2.3 µM; in the assay with RPMI-8226 leukemia, 1.76 µM; in the assay with HCT-15 colon it was 2.37 µM; in the assay on RXF 393 renal, 1.58 µM; in the assay on HT29 colon, 3.36 µM; in the assay on OVCAR-3 ovarian, 2.99 µM. The TGI in the assay with OVCAR-5 ovarian was 5.18 µM; in the assay with A498 renal, 6.77 µM; in the assay with NCI-H460 lung, 6.36 µM; in the assay with K-562 leukemia, 1.07 µM.

As to `OCc1ccc(N2CCOCC2)cc1Cl`, the GI50 was 28.6 µM with HCT-116 colon; over 84.4 µM in the assay with RPMI-8226 leukemia; over 100 µM with HCT-15 colon; over 79.1 µM with RXF 393 renal; over 81.8 µM in the assay with HT29 colon; 35.2 µM in the assay on OVCAR-3 ovarian. Also, the GI50 was 2.42 µM with OVCAR-5 ovarian, 0.224 µM in the assay on A498 renal, 30.9 µM in the assay with NCI-H460 lung and over 100 µM in the assay on K-562 leukemia. Also, the TGI is over 100 µM with HCT-116 colon; over 100 µM in the assay with RPMI-8226 leukemia; over 100 µM with HCT-15 colon; over 100 µM with RXF 393 renal; over 100 µM with HT29 colon; over 92 µM in the assay with OVCAR-3 ovarian. Moreover, the TGI is 10.6 µM in the assay on OVCAR-5 ovarian, 0.926 µM with A498 renal, over 100 µM with NCI-H460 lung and over 100 µM in the assay with K-562 leukemia.

As to `c1cnn2ncc(-c3ccnc(Nc4ccc5c(c4)OCCO5)n3)c2c1`, the GI50 was 0.0533 µM in the assay on HCT-116 colon; 0.0783 µM in the assay on RPMI-8226 leukemia; 0.0863 µM in the assay with HCT-15 colon; 0.0535 µM in the assay with RXF 393 renal; 0.0691 µM in the assay on HT29 colon; 0.0548 µM in the assay on OVCAR-3 ovarian. Moreover, the GI50 in the assay with OVCAR-5 ovarian is 0.0866 µM; with A498 renal it was 0.0492 µM; in the assay with NCI-H460 lung, 0.0731 µM; in the assay on K-562 leukemia it was 0.285 µM. For the same compound, the TGI with HCT-116 colon was 1.04 µM; with RPMI-8226 leukemia, 0.388 µM; with HCT-15 colon, over 25 µM; with RXF 393 renal it was 0.137 µM; in the assay on HT29 colon, 0.358 µM; in the assay on OVCAR-3 ovarian, 0.142 µM. Moreover, the TGI is over 25 µM in the assay on OVCAR-5 ovarian, 0.128 µM in the assay on A498 renal, 0.258 µM in the assay with NCI-H460 lung and over 25 µM in the assay on K-562 leukemia.

With `CC1OC(c2ccc3c(c2O)C(=O)C2=C(C3=O)C3(O)C(=O)CC(C)(O)CC3(O)C=C2)CC(O)C1O` (stereo not given), the TGI in the assay with HCT-116 colon stood at 17.5 µM; in the assay with RPMI-8226 leukemia it was 48.1 µM; with HCT-15 colon it was 29.7 µM; in the assay on RXF 393 renal it was 26.8 µM; with HT29 colon, 19.6 µM; in the assay with OVCAR-3 ovarian, 15.8 µM. Further, the TGI in the assay on OVCAR-5 ovarian was 31.8 µM; in the assay with A498 renal, 34.5 µM; in the assay on NCI-H460 lung, over 64.9 µM; with K-562 leukemia it was 14.3 µM.

On to `COc1ccc(C2=C(N3CCc4ccccc43)C(=O)NC2=O)cc1`, for which the GI50 in the assay on HCT-116 colon was over 25 µM; in the assay on RPMI-8226 leukemia it was over 22.9 µM; in the assay with HCT-15 colon, over 25 µM; in the assay on RXF 393 renal, over 25 µM; in the assay on HT29 colon, over 25 µM; in the assay on OVCAR-3 ovarian, over 25 µM. For the same compound, the GI50 in the assay with OVCAR-5 ovarian was over 25 µM; with A498 renal it was over 16.6 µM; with NCI-H460 lung it was over 25 µM; in the assay on K-562 leukemia, over 17.4 µM. For the same compound, the TGI in the assay with HCT-116 colon, in the assay on RPMI-8226 leukemia, in the assay on HCT-15 colon, with RXF 393 renal, in the assay on HT29 colon and with OVCAR-3 ovarian was over 25 µM each time. Moreover, the TGI in the assay on OVCAR-5 ovarian, with A498 renal, in the assay with NCI-H460 lung and with K-562 leukemia was over 25 µM in each case.

Consider `O=C(NCCN1CCNCC1)c1ccc(Nc2nc3ccccc3c3occc23)cc1`, for which the GI50 with HCT-116 colon is 4.11 µM; in the assay with RPMI-8226 leukemia, 18.7 µM; in the assay with HCT-15 colon, 20 µM; with RXF 393 renal, 6.92 µM; in the assay on HT29 colon, 4.5 µM; in the assay on OVCAR-3 ovarian, 14.5 µM. Besides, the GI50 was 15 µM in the assay with OVCAR-5 ovarian, 16.2 µM with A498 renal, 17.4 µM in the assay on NCI-H460 lung and 14.4 µM in the assay on K-562 leukemia. Also, the TGI with HCT-116 colon is 15.8 µM; in the assay with RPMI-8226 leukemia, 49.1 µM; in the assay on HCT-15 colon it was 37.9 µM; in the assay on RXF 393 renal, 26.4 µM; in the assay on HT29 colon, over 100 µM; with OVCAR-3 ovarian it was 80.1 µM. Further, the TGI was 29.5 µM with OVCAR-5 ovarian, 36.3 µM with A498 renal, over 100 µM in the assay on NCI-H460 lung and 40.1 µM in the assay with K-562 leukemia.

`Nc1cc(-c2ccc(Cl)cc2)nn1-c1nnc(/C=C/c2ccco2)c(=O)[nH]1`: the GI50 in the assay on HCT-116 colon was 3.15 µM; with RPMI-8226 leukemia it was 1.54 µM; with HCT-15 colon it was 1.38 µM; with RXF 393 renal, 9.91 µM; in the assay with HT29 colon it was 6.61 µM; in the assay with OVCAR-3 ovarian it was 2.16 µM. In addition, the GI50 with OVCAR-5 ovarian was 10.9 µM; with A498 renal, 1.78 µM; in the assay with NCI-H460 lung it was 2.15 µM; in the assay with K-562 leukemia it was 2.98 µM. In addition, the TGI was 15.8 µM in the assay on HCT-116 colon; over 48.1 µM in the assay with RPMI-8226 leukemia; over 49.1 µM in the assay with HCT-15 colon; 34.7 µM in the assay with RXF 393 renal; over 100 µM in the assay on HT29 colon; 8.45 µM with OVCAR-3 ovarian. In addition, the TGI with OVCAR-5 ovarian was over 90.5 µM; in the assay on A498 renal it was 6.9 µM; with NCI-H460 lung it was 15.3 µM; in the assay on K-562 leukemia, over 48 µM.

On to `COc1cc(C2c3cc4c(cc3[C@@H](Nc3ccc5c(c3)OCCO5)C3COC(=O)[C@H]23)OCO4)cc(OC)c1O` (stereo not given in full), for which the TGI with HCT-116 colon was 8 µM; in the assay with RPMI-8226 leukemia, 8.42 µM; in the assay on HCT-15 colon, 7.23 µM; in the assay on RXF 393 renal it was 4.64 µM; in the assay with HT29 colon, 5.96 µM; in the assay on OVCAR-3 ovarian, 7.1 µM. The TGI in the assay on OVCAR-5 ovarian was 16.6 µM; with A498 renal, 1.42 µM; with NCI-H460 lung, 2.23 µM; in the assay with K-562 leukemia it was 16.4 µM.

Regarding `Cn1c(=O)nc2n(-c3ccc(Cl)c(C(F)(F)F)c3)c3ccccc3nc-2c1=O`, the TGI with HCT-116 colon is over 79.4 µM; with RPMI-8226 leukemia it was over 100 µM; in the assay with HCT-15 colon, over 100 µM; in the assay with RXF 393 renal, over 100 µM; with HT29 colon it was 64.8 µM; in the assay with OVCAR-3 ovarian it was over 100 µM. Moreover, the TGI with OVCAR-5 ovarian, in the assay on A498 renal, in the assay with NCI-H460 lung and in the assay with K-562 leukemia was over 100 µM throughout.
